Measured values reported in article PMC7859945 (ACS Omega, 2021).
Counter-ions that a name gives are not always drawn.

Columns and labels:
[1] = tested on: various breast cancer cells; details: various breast cancer cells in vitro; cited from earlier work
Solubility in water = assay type: physicochemical; details: data not shown
[2] = Kinetic solubility study of metformin salts in lipid excipients; details: for solubility in lipid vehicles: Miglyol 812N and Capryol 90 (text statement for both); for solubility (mg/g) of lipid excipient: medium-chain triglyceride (Miglyol 812N), kinetic solubility, visual inspection
[3] = tested on: triple-negative breast cancer; details: mouse model of triple-negative breast cancer, 250 mg/kg; cited from earlier work
[4] = cited from earlier work
[5] = tested on: MYCN-2 and SK-N-Be2c neuroblastoma cells; assay: In vitro cytotoxicity, SRB assay, statements spanning both neuroblastoma lines; assay type: cell-based, human; details: MYCN-2 and SK-N-Be2c cells
SK-N-Be2c cells = assay: In vitro cytotoxicity, SRB assay, SK-N-Be2c cells; assay type: cell-based; details: Homo sapiens, SK-N-BE(2)-C, read-out: IC50, cytotoxicity (Be2c)
MYCN-2 cells = assay: In vitro cytotoxicity, SRB assay, MYCN-2 cells; assay type: cell-based; details: Homo sapiens, read-out: IC50, cytotoxicity (MYCN)
cancer cells = details: read-out: IC50, anticancer activity; cited from earlier work

SMILES: CN(C)C(=N)NC(=N)N.NCCCC(=O)O [metformin gamma-aminobutyric acid salt]
- improvement of the potency of metformin [1]: 2- to 10 fold

SMILES: CN(C)C(=N)NC(=N)N.NCC1(CC(=O)O)CCCCC1 [metformin gabapentin salt]
- improvement of the potency of metformin [1]: 2- to 10 fold

SMILES: CN(C)C(=N)NC(=N)N.C[C@H](CCC(=O)O)[C@H]1CC[C@H]2[C@@H]3[C@H](O)C[C@@H]4C[C@H](O)CC[C@]4(C)[C@H]3C[C@H](O)[C@]12C [metformin cholate, Metformin Cholate]
- water solubility (Solubility in water): > 1000 µg/mL
- solubility in lipid vehicles [2]: < 5 mg/g
- solubility (mg/g) of lipid excipient [2]: <5 mg/g

SMILES: CCCC(=O)O.CN(C)C(=N)N=C(N)N [metformin butyrate]
- anticancer activity versus metformin [3]: significantly higher anticancer activity than metformin
- improvement of the potency of metformin [1]: 2- to 10 fold

SMILES: CCCCC(CC)COC(=O)CC(C(=O)OCC(CC)CCCC)S(=O)(=O)O.CN(C)C(=N)N=C(N)N (stereo not drawn) [metformin docusate, Metformin Docusate]
- solubility in medium-chain triglycerides and propylene glycol fatty acid esters [4]: > 75 mg/g
- solubility in lipid vehicles [2]: > 200 mg/g
- solubility (mg/g) of lipid excipient [2]: >200 mg/g
- improvement in anticancer potency (lower IC50) compared to metformin hydrochloride [5]: 700- to 4300 fold

SMILES: CN(C)C(=N)N=C(N)N [metformin hydrochloride, Metformin hydrochloride]
- IC50 (SK-N-Be2c cells): > 100 mM
- IC50 (MYCN-2 cells): > 100 mM
- IC50 (cancer cells): > 1 mM

SMILES: CC(C)C[C@H](CN)CC(=O)O.CN(C)C(=N)NC(=N)N [metformin pregabalin salt]
- improvement of the potency of metformin [1]: 2- to 10 fold
